Data reported in patent publication US20240124417A1, “COMPOUNDS USEFUL AS IMMUNOMODULATORS” (Bristol-Myers Squibb Company, priority 2019, published 2024).

Target: T1, PD-1/PD-L1 (Homo sapiens, UniProt Q9NZQ7)
T1 construct: TVMV protease site linker (C); made in house; host or cells: HEK293T cells
Assay: PD-1/PD-L1 Homogenous Time-Resolved Fluorescence (HTRF) binding assay
Settings: PD-L1-His 10 nM, PD-1-Ig 20 nM
From the text: The ability of the compounds of the invention to bind to PD-L1 was investigated using a PD-1/PD-L1 Homogenous Time-Resolved Fluorescence (HTRF) binding assay.
Homogenous Time-Resolved Fluorescence (HTRF) binding assay.
The interaction of PD-1 and PD-L1 can be assessed using soluble, purified preparations of the extracellular domains of the two proteins. The PD-1 and PD-L1 protein extracellular domains were expressed as fusion proteins with detection tags, for PD-1, the tag was the Fc portion of Immunoglobulin (PD-1-Ig) and for PD-L1 it was the 6 histidine motif (PD-L1-His). All binding studies were performed in an HTRF assay buffer consisting of dPBS supplemented with 0.1% […] bovine serum albumin and 0.05% (v/v) Tween-20. For the h/PD-L1-His binding assay, inhibitors were pre-incubated with PD-L1-His (10 nM final) for 15 m in 4 μl of assay buffer, followed by addition of PD-1-Ig (20 nM final) in 1 μl of assay buffer and further incubation for 15 m. HTRF detection was achieved using europium crypate-labeled anti-Ig (1 nM final) and allophycocyanin (APC) labeled anti-His (20 nM final). Antibodies were diluted in HTRF detection buffer and 5 μl was dispensed on top of the binding reaction. […] Additional binding assays were established between the human proteins PD-1-Ig/PD-L2-His (20 & 5 nM, respectively) and CD80-His/PD-L1-Ig (100 & 10 nM, respectively). […]

T1 sequence (Q9NZQ7 18-239): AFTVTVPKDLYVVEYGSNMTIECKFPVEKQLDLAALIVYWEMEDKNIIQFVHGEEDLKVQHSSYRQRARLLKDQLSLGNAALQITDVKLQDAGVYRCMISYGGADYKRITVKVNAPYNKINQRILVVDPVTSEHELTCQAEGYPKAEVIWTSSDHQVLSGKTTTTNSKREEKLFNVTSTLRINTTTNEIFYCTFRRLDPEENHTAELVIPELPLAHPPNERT

| SMILES | IC50 |
| --- | --- |
| Cc1c(COc2cc(OCc3cncc(C#N)c3)c(CN3CCCCC3c3cc[nH]n3)cc2Cl)cccc1-c1cccc(OCC2CCCN(C)C2)c1Cl (stereo not shown) [Example 1021, 5-((2-((2-(1H-Pyrazol-3-yl)piperidin-1-yl)methyl)-4-chloro-5-((2′-chloro-2-methyl-3′-((1-methyl-piperidin-3-yl)methoxy)-[1,1′-biphenyl]-3-yl)methoxy)phenoxy)methyl)-nicotinonitrile] | 1.8 nM |
| Cc1c(COc2cc(OCc3cncc(C#N)c3)c(CN3CCCCC3c3cnn(C)c3)cc2Cl)cccc1-c1cccc(OCC2CCCN(C)C2)c1Cl (stereo not shown) [Example 1022, 5-((4-Chloro-5-((2′-chloro-2-methyl-3′-((1-methylpiperidin-3-yl)methoxy)-[1,1′-biphenyl]-3-yl)methoxy)-2-((2-(1-methyl-1H-pyrazol-4-yl)piperidin-1-yl)methyl)phenoxy)-methyl)nicotinonitrile] | 1.3 nM |
| Cc1c(COc2cc(OCc3cncc(C#N)c3)c(CN3CCCC(c4cnn(C)c4)C3)cc2Cl)cccc1-c1cccc(OCC2CCCN(C)C2)c1Cl (stereo not shown) [Example 1023, 5-((4-Chloro-5-((2′-chloro-2-methyl-3′-((1-methylpiperidin-3-yl)methoxy)-[1,1′-biphenyl]-3-yl)methoxy)-2-((3-(1-methyl-1H-pyrazol-4-yl)piperidin-1-yl)methyl)-phenoxy)methyl)nicotinonitrile] | 0.2 nM |
| Cc1c(COc2cc(OCc3cncc(C#N)c3)c(CN3CCCC(c4ccn[nH]4)C3)cc2Cl)cccc1-c1cccc(OCC2CCCN(C)C2)c1Cl (stereo not shown) [Example 1024, 5-((2-((3-(1H-Pyrazol-5-yl)piperidin-1-yl)methyl)-4-chloro-5-((2′-chloro-2-methyl-3′-((1-methylpiperidin-3-yl)methoxy)-[1,1′-biphenyl]-3-yl)methoxy)phenoxy)methyl)-nicotinonitrile] | 0.7 nM |
| Cc1c(COc2cc(OCc3cncc(C#N)c3)c(CN3CCCC3c3cn[nH]c3)cc2Cl)cccc1-c1cccc(OCC2CCCN(C)C2)c1Cl (stereo not shown) [Example 1025, 5-((2-((2-(1H-Pyrazol-4-yl)pyrrolidin-1-yl)methyl)-4-chloro-5-((2′-chloro-2-methyl-3′-((1-methylpiperidin-3-yl)methoxy)-[1,1′-biphenyl]-3-yl)methoxy)phenoxy)methyl)-nicotinonitrile] | 0.5 nM |
| Cc1c(COc2cc(OCc3cncc(C#N)c3)c(CN3CCCC3c3ccn[nH]3)cc2Cl)cccc1-c1cccc(OCC2CCCN(C)C2)c1Cl (stereo not shown) [Example 1026, 5-((2-((2-(1H-Pyrazol-5-yl)pyrrolidin-1-yl)methyl)-4-chloro-5-((2′-chloro-2-methyl-3′-((1-methylpiperidin-3-yl)methoxy)-[1,1′-biphenyl]-3-yl)methoxy)phenoxy)methyl)-nicotinonitrile] | 1.5 nM |
| Cc1n[nH]c(C)c1C(NCc1cc(Cl)c(OCc2cccc(-c3cccc(OCC4CCCN(C)C4)c3Cl)c2C)cc1OCc1cncc(C#N)c1)C(=O)O (stereo not shown) [Example 1027, 2-((5-Chloro-4-((2′-chloro-2-methyl-3′-((1-methylpiperidin-3-yl)methoxy)-[1,1′-biphenyl]-3-yl)methoxy)-2-((5-cyanopyridin-3-yl)methoxy)benzyl)amino)-2-(3,5-dimethyl-1H-pyrazol-4-yl)acetic acid] | 1.1 nM |
| Cc1c(COc2cc(OCc3cncc(C#N)c3)c(CNC(C(=O)O)c3cnn(C)c3)cc2Cl)cccc1-c1cccc(OCC2CCCN(C)C2)c1Cl (stereo not shown) [Example 1028, 2-((5-Chloro-4-((2′-chloro-2-methyl-3′-((1-methylpiperidin-3-yl)methoxy)-[1,1′-biphenyl]-3-yl)methoxy)-2-((5-cyanopyridin-3-yl)methoxy)benzyl)amino)-2-(1-methyl-1H-pyrazol-4-yl)acetic acid] | 1.9 nM |
| Cc1c(COc2cc(OCc3cncc(C#N)c3)c(CN3CCC4C(C3)C(CO)=NN4C)cc2Cl)cccc1-c1cccc(OCC2CCCN(C)C2)c1Cl (stereo not shown) [Example 1029, 5-((4-Chloro-5-((2′-chloro-2-methyl-3′-((1-methylpiperidin-3-yl)methoxy)-[1,1′-biphenyl]-3-yl)methoxy)-2-((3-(hydroxymethyl)-1-methyl-1,3a,4,6,7,7a-hexahydro-5H-pyrazolo[4,3-c]pyridin-5-yl)methyl)phenoxy)methyl)nicotinonitrile] | 2 nM |
| Cc1c(COc2cc(OCc3cncc(C#N)c3)c(CN(C)C(C)c3nnn[nH]3)cc2Cl)cccc1-c1cccc(OCCCNC[C@H](O)CO)c1C (stereo partly drawn) [Example 1030, 5-((2-(((1-(1H-Tetrazol-5-yl)ethyl)(methyl)amino)methyl)-4-chloro-5-((3′-(3-(((S)-2,3-dihydroxypropyl)amino)propoxy)-2,2′-dimethyl-[1,1′-biphenyl]-3-yl)methoxy)-phenoxy)methyl)nicotinonitrile] | 0.2 nM |
| Cc1c(COc2cc(OCc3cncc(C#N)c3)c(CN3CCCCC3c3cn[nH]c3)cc2Cl)cccc1-c1cccc(OCCCNC[C@H](O)CO)c1Cl (stereo partly drawn) [Example 1032, 5-((2-((2-(1H-Pyrazol-4-yl)piperidin-1-yl)methyl)-4-chloro-5-((2′-chloro-3′-(3-(((S)-2,3-dihydroxypropyl)amino)propoxy)-2-methyl-[1,1′-biphenyl]-3-yl)methoxy)phenoxy)-methyl)nicotinonitrile] | 0.8 nM |
| Cc1c(COc2cc(OCc3cncc(C#N)c3)c(CN3CCC(c4nnn[nH]4)C3)cc2Cl)cccc1-c1cccc(OCCCNC[C@H](O)CO)c1Cl (stereo partly drawn) [Example 1033, 5-((2-((3-(1H-Tetrazol-5-yl)pyrrolidin-1-yl)methyl)-4-chloro-5-((2′-chloro-3′-(3-(((S)-2,3-dihydroxypropyl)amino)propoxy)-2-methyl-[1,1′-biphenyl]-3-yl)methoxy)phenoxy)-methyl)nicotinonitrile] | 2.1 nM |
| Cc1c(COc2cc(OCc3cncc(C#N)c3)c(CN(C)C(C)c3nnn[nH]3)cc2Cl)cccc1-c1cccc(OCCCNC[C@H](O)CO)c1Cl (stereo partly drawn) [Example 1034, 5-((2-(((1-(1H-Tetrazol-5-yl)ethyl)(methyl)amino)methyl)-4-chloro-5-((2′-chloro-3′-(3-(((S)-2,3-dihydroxypropyl)amino)propoxy)-2-methyl-[1,1′-biphenyl]-3-yl)methoxy)-phenoxy)methyl)-nicotinonitrile] | 0.4 nM |
| Cc1c(COc2cc(OCc3cncc(C#N)c3)c(CN(C)CC(C)c3nnn[nH]3)cc2Cl)cccc1-c1cccc(OCCCNC[C@H](O)CO)c1Cl (stereo partly drawn) [Example 1035, 5-((2-(((2-(1H-Tetrazol-5-yl)propyl)(methyl)amino)methyl)-4-chloro-5-((2′-chloro-3′-(3-(((S)-2,3-dihydroxypropyl)amino)propoxy)-2-methyl-[1,1′-biphenyl]-3-yl)methoxy)-phenoxy)methyl)nicotinonitrile] | 1.3 nM |
| CC(=O)NC1CCN(CCCOc2cccc(-c3cccc(COc4cc(OCc5cncc(C#N)c5)c(CNc5nnn[nH]5)cc4Cl)c3C)c2C)CC1 [Example 1036, N-(1-(3-((3′-((4-(((1H-Tetrazol-5-yl)amino)methyl)-2-chloro-5-((5-cyanopyridin-3-yl)-methoxy)phenoxy)methyl)-2,2′-dimethyl-[1,1′-biphenyl]-3-yl)oxy)propyl)piperidin-4-yl)-acetamide] | 4.2 nM |
| CC(=O)NC1CCN(CCCOc2cccc(-c3cccc(COc4cc(OCc5cncc(C#N)c5)c(CN(C)CCc5nn[nH]n5)cc4Cl)c3C)c2C)CC1 [Example 1037, N-(1-(3-((3′-((4-(((2-(2H-Tetrazol-5-yl)ethyl)(methyl)amino)methyl)-2-chloro-5-((5-cyanopyridin-3-yl)methoxy)phenoxy)methyl)-2,2′-dimethyl-[1,1′-biphenyl]-3-yl)oxy)-propyl)piperidin-4-yl)acetamide] | 2.8 nM |
| CC(=O)NC1CCN(CCCOc2cccc(-c3cccc(COc4cc(OCc5cncc(C#N)c5)c(CN5CCCC(c6ncc[nH]6)C5)cc4Cl)c3C)c2C)CC1 (stereo not shown) [Example 1038, N-(1-(3-((3′-((4-((3-(1H-Imidazol-2-yl)piperidin-1-yl)methyl)-2-chloro-5-((5-cyano-pyridin-3-yl)methoxy)phenoxy)methyl)-2,2′-dimethyl-[1,1′-biphenyl]-3-yl)oxy)propyl)-piperidin-4-yl)acetamide] | 3.7 nM |
| CC(=O)NC1CCN(CCCOc2cccc(-c3cccc(COc4cc(OCc5cncc(C#N)c5)c(CN5CCCC(c6nnc[nH]6)C5)cc4Cl)c3C)c2C)CC1 (stereo not shown) [Example 1039, N-(1-(3-((3′-((4-((3-(4H-1,2,4-Triazol-3-yl)piperidin-1-yl)methyl)-2-chloro-5-((5-cyano-pyridin-3-yl)methoxy)phenoxy)methyl)-2,2′-dimethyl-[1,1′-biphenyl]-3-yl)oxy)propyl)-piperidin-4-yl)acetamide] | 2.7 nM |
| CC(=O)NC1CCN(CCCOc2cccc(-c3cccc(COc4cc(OCc5cncc(C#N)c5)c(CN(C)C(C)c5nnn[nH]5)cc4Cl)c3C)c2C)CC1 (stereo not shown) [Example 1040, N-(1-(3-((3′-((4-(((1-(1H-Tetrazol-5-yl)ethyl)(methyl)amino)methyl)-2-chloro-5-((5-cyanopyridin-3-yl)methoxy)phenoxy)methyl)-2,2′-dimethyl-[1,1′-biphenyl]-3-yl)oxy)-propyl)piperidin-4-yl)acetamide] | 2.3 nM |
